These are literature values, as cited in patent publication US20260174718A1, “MODULATORS OF mTORC1 ACTIVITY AND USES THEREOF” (Navitor Pharmaceuticals, Inc., priority 2022, published 2026).

This series relates to mice. The note with it: ketamine 2.5 mg/kg, intraperitoneally.

Consider `CNC1(c2ccccc2Cl)CCCCC1=O` (stereo not shown) [ketamine], for which the “effect of ketamine challenge alone in the forced swim test” value is “ineffective”.
